Where “and” joins values, the source holds several entries; their conditions need not be identical. Equal entries are not always repeated. Toxic doses and inconclusive results are not listed.

The subject of the assay is L1210 leukemia ip in BDF1 mice, survival T/C. Put plainly: NCI In Vivo Anticancer Drug Screen. Data for tumor model L1210 Leukemia (intraperitoneal) in B6D2F1 (BDF1) mice. The settings on record: higher = longer survival. The essentials:
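Mice bearing the transplanted tumor received compound or vehicle. Survival of the treated group was divided by that of the vehicle-treated control group to give the ratio.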

The mark [1] stands for this setting: endpoint: mean survival time, dose: 100.0 mg/kg/injection, schedule: Q01DX001 (ip), vehicle: carboxymethylcellulose (CMC).
[2] abbreviates: endpoint: mean survival time, dose: 100.0 mg/kg/injection, schedule: Q01DX009 (ip), vehicle: Klucel (hydroxypropylcellulose) (HPC).
[3] abbreviates: endpoint: mean survival time, dose: 200.0 mg/kg/injection, schedule: Q01DX001 (ip), vehicle: carboxymethylcellulose (CMC).
Setting [4] is: endpoint: mean survival time, dose: 200.0 mg/kg/injection, schedule: Q01DX009 (ip), vehicle: Klucel (hydroxypropylcellulose) (HPC).
Setting [5] is: endpoint: mean survival time, dose: 400.0 mg/kg/injection, schedule: Q01DX009 (ip), vehicle: Klucel (hydroxypropylcellulose) (HPC).
[6] abbreviates: endpoint: mean survival time, dose: 100.0 mg/kg/injection, schedule: Q04DX003 (ip), vehicle: saline.
[7] abbreviates: endpoint: mean survival time, dose: 200.0 mg/kg/injection, schedule: Q04DX003 (ip), vehicle: saline.
Setting [8] is: endpoint: mean survival time, dose: 100.0 mg/kg/injection, schedule: Q04DX003 (ip), vehicle: saline with Tween-80.
Where [9] appears, read: endpoint: mean survival time, dose: 200.0 mg/kg/injection, schedule: Q04DX003 (ip), vehicle: saline with Tween-80.
Where [10] appears, read: endpoint: mean survival time, dose: 400.0 mg/kg/injection, schedule: Q04DX003 (ip), vehicle: saline with Tween-80.

For the compound `CC(C)(CO)N=Cc1ccccc1O.CC(C)(CO)N=Cc1ccccc1O.[Co]`, the T/C runs as follows: (endpoint: mean survival time, dose: 12.5 mg/kg/injection, schedule: Q01DX001 (ip), vehicle: saline) 97 % of control; (endpoint: mean survival time, dose: 25.0 mg/kg/injection, schedule: Q01DX001 (ip), vehicle: saline) 97 % of control; (endpoint: mean survival time, dose: 50.0 mg/kg/injection, schedule: Q01DX001 (ip), vehicle: saline) 92 % of control.

Regarding `O=C(OC1COC(Br)C(OC(=O)c2ccccc2)C1OC(=O)c1ccccc1)c1ccccc1` (stereo not given), the T/C (endpoint: mean survival time, dose: 50.0 mg/kg/injection, schedule: Q01DX001 (ip), vehicle: carboxymethylcellulose (CMC)) was 90 % of control; the T/C under setting [1] is 95 % of control and 97 % of control; the T/C under setting [2] was 97 % of control; the T/C (endpoint: mean survival time, dose: 100.0 mg/kg/injection, schedule: Q04DX003 (ip), vehicle: Klucel (hydroxypropylcellulose) (HPC)) is 106 % of control; the T/C under setting [3] is 93 % of control and 94 % of control; the T/C under setting [4] is 103 % of control. The T/C (endpoint: mean survival time, dose: 200.0 mg/kg/injection, schedule: Q04DX003 (ip), vehicle: Klucel (hydroxypropylcellulose) (HPC)) is 104 % of control; the T/C (endpoint: mean survival time, dose: 400.0 mg/kg/injection, schedule: Q01DX001 (ip), vehicle: carboxymethylcellulose (CMC)) is 98 % of control and 94 % of control; the T/C under setting [5] was 98 % of control; the T/C (endpoint: mean survival time, dose: 400.0 mg/kg/injection, schedule: Q04DX003 (ip), vehicle: Klucel (hydroxypropylcellulose) (HPC)) is 98 % of control.

Take `O=NN(CCCl)C(=O)Nc1ccc(Cl)c(Cl)c1`: the T/C by setting is: (endpoint: mean survival time, dose: 5.0 mg/kg/injection, schedule: Q01DX009 (ip), vehicle: carboxymethylcellulose (CMC)) 121 % of control; (endpoint: mean survival time, dose: 8.0 mg/kg/injection, schedule: Q01DX009 (ip), vehicle: carboxymethylcellulose (CMC)) 114 % of control; (endpoint: mean survival time, dose: 17.0 mg/kg/injection, schedule: Q01DX015 (ip), vehicle: carboxymethylcellulose (CMC)) 114 % of control; (endpoint: mean survival time, dose: 26.0 mg/kg/injection, schedule: Q01DX015 (ip), vehicle: carboxymethylcellulose (CMC)) 163 % of control and 167 % of control; (endpoint: mean survival time, dose: 39.0 mg/kg/injection, schedule: Q01DX015 (ip), vehicle: carboxymethylcellulose (CMC)) 119 % of control and 121 % of control; (endpoint: mean survival time, dose: 58.0 mg/kg/injection, schedule: Q01DX015 (ip), vehicle: carboxymethylcellulose (CMC)) 117 % of control and 89 % of control. For the same compound, the T/C under setting [1] is 116 % of control; the T/C under setting [3] is 161 % of control; the T/C (endpoint: mean survival time, dose: 300.0 mg/kg/injection, schedule: Q01DX001 (ip), vehicle: carboxymethylcellulose (CMC)) was 89 % of control.

`C/C(CC(c1ccccc1)N1CCc2ccccc2C1)=N/O` (stereo not given): the T/C is, setting by setting: (endpoint: mean survival time, dose: 100.0 mg/kg/injection, schedule: Q01DX009 (ip), vehicle: saline sonified) 94 % of control; under setting [6], 105 % of control; (endpoint: mean survival time, dose: 200.0 mg/kg/injection, schedule: Q01DX009 (ip), vehicle: saline sonified) 94 % of control; under setting [7], 104 % of control; (endpoint: mean survival time, dose: 400.0 mg/kg/injection, schedule: Q01DX009 (ip), vehicle: saline sonified) 90 % of control; (endpoint: mean survival time, dose: 400.0 mg/kg/injection, schedule: Q04DX003 (ip), vehicle: saline) 112 % of control.

For the compound `Cc1cc(=O)oc2cc(OC(=O)Nc3cccc(Cl)c3Cl)ccc12`, the T/C by setting is: (endpoint: mean survival time, dose: 25.0 mg/kg/injection, schedule: Q01DX009 (ip), vehicle: Klucel (hydroxypropylcellulose) (HPC)) 89 % of control; (endpoint: mean survival time, dose: 50.0 mg/kg/injection, schedule: Q01DX009 (ip), vehicle: Klucel (hydroxypropylcellulose) (HPC)) 93 % of control; under setting [2], 98 % of control.

With `C=C(C)[P+](C)(c1ccccc1)c1ccccc1`, the T/C runs as follows: (endpoint: mean survival time, dose: 2.5 mg/kg/injection, schedule: Q01DX001 (ip), vehicle: saline) 102 % of control; (endpoint: mean survival time, dose: 5.0 mg/kg/injection, schedule: Q01DX001 (ip), vehicle: saline) 105 % of control.

As for `CCOc1ccc(/C=N/NC(=O)COCC(=O)N/N=C/c2ccc(OCC)c(OC)c2)cc1OC`, the T/C is 92 % of control under setting [2], 87 % of control under setting [4] and 103 % of control under setting [5].

For `COC(=O)C(CO)NC(c1ccccc1)(c1ccccc1)c1ccccc1` (stereo not given), the T/C is, setting by setting: (endpoint: mean survival time, dose: 50.0 mg/kg/injection, schedule: Q01DX009 (ip), vehicle: saline) 91 % of control; (endpoint: mean survival time, dose: 100.0 mg/kg/injection, schedule: Q01DX009 (ip), vehicle: saline) 95 % of control; (endpoint: mean survival time, dose: 200.0 mg/kg/injection, schedule: Q01DX009 (ip), vehicle: saline) 92 % of control; (endpoint: mean survival time, dose: 400.0 mg/kg/injection, schedule: Q01DX009 (ip), vehicle: saline) 97 % of control.

As for `CC1(C(Cl)Cl)C(=O)C=Cc2ccccc21` (stereo not given), the T/C was 95 % of control (endpoint: mean survival time, dose: 100.0 mg/kg/injection, schedule: Q04DX002 (ip), vehicle: saline with Tween-80); 98 % of control (endpoint: mean survival time, dose: 200.0 mg/kg/injection, schedule: Q04DX002 (ip), vehicle: saline with Tween-80); 95 % of control (endpoint: mean survival time, dose: 400.0 mg/kg/injection, schedule: Q04DX002 (ip), vehicle: saline with Tween-80).

With `CC(=O)C1C(=O)C(=O)OC1C` (stereo not given), the T/C (endpoint: mean survival time, dose: 100.0 mg/kg/injection, schedule: Q04DX003 (ip), vehicle: alcohol) was 94 % of control and the T/C (endpoint: mean survival time, dose: 200.0 mg/kg/injection, schedule: Q04DX003 (ip), vehicle: alcohol) is 96 % of control.

As to `CCCCNC(=S)NC(=O)c1ccc(Br)cc1`, the T/C was 97 % of control (endpoint: mean survival time, dose: 100.0 mg/kg/injection, schedule: Q04DX002 (ip), vehicle: Klucel (hydroxypropylcellulose) (HPC)); 97 % of control (endpoint: mean survival time, dose: 200.0 mg/kg/injection, schedule: Q04DX002 (ip), vehicle: Klucel (hydroxypropylcellulose) (HPC)); 90 % of control (endpoint: mean survival time, dose: 400.0 mg/kg/injection, schedule: Q04DX002 (ip), vehicle: Klucel (hydroxypropylcellulose) (HPC)).

`N#C/C(=C\c1ccccc1)c1cccc(Cl)c1`: the T/C was 95 % of control (endpoint: mean survival time, dose: 100.0 mg/kg/injection, schedule: Q01DX009 (ip), vehicle: other) and 87 % of control (endpoint: mean survival time, dose: 200.0 mg/kg/injection, schedule: Q01DX009 (ip), vehicle: other).

For `O=C(Nc1ccc(S(=O)(=O)NC2CCCCC2)cc1)Oc1ccccc1C(=O)O`, the T/C runs as follows: (endpoint: mean survival time, dose: 100.0 mg/kg/injection, schedule: Q01DX001 (ip), vehicle: saline) 100 % of control; (endpoint: mean survival time, dose: 200.0 mg/kg/injection, schedule: Q01DX001 (ip), vehicle: saline) 91 % of control; (endpoint: mean survival time, dose: 400.0 mg/kg/injection, schedule: Q01DX001 (ip), vehicle: saline) 100 % of control.

`CCN(C(C)(C)C(SSSC(c1ccc(Cl)cc1)C(C)(C)N(CC)S(C)(=O)=O)c1ccc(Cl)cc1)S(C)(=O)=O` (stereo not given): the T/C (endpoint: mean survival time, dose: 100.0 mg/kg/injection, schedule: Q01DX009 (ip), vehicle: saline with Tween-80) is 91 % of control.

Regarding `CC(C)(C)CC(C)(C)c1ccc(OCCOc2ccc(C(=O)Nc3ccc(NC(=O)c4ccc5ccccc5c4O)cc3)cc2)cc1`, the T/C runs as follows: under setting [8], 105 % of control; under setting [9], 90 % of control; under setting [10], 90 % of control.

For `O=S(=O)(NC(=S)Nc1ccc(Cl)cc1)c1ccccc1`, the T/C is 110 % of control under setting [8], 107 % of control under setting [9] and 93 % of control under setting [10].

Regarding `CCOC(=O)c1cnc(SC)nc1Nc1cc(Cl)cc(Cl)c1`, the T/C reads like this: under setting [8], 89 % of control; under setting [9], 87 % of control; under setting [10], 91 % of control.

In the case of `COc1cc(N=Nc2cccc([N+](=O)[O-])c2)ccc1N(CCCl)CCCl`, the T/C was 98 % of control (endpoint: median survival time, dose: 100.0 mg/kg/injection, schedule: Q01DX009 (ip), vehicle: Klucel (hydroxypropylcellulose) (HPC)); 100 % of control (endpoint: median survival time, dose: 200.0 mg/kg/injection, schedule: Q01DX009 (ip), vehicle: Klucel (hydroxypropylcellulose) (HPC)); 104 % of control (endpoint: median survival time, dose: 400.0 mg/kg/injection, schedule: Q01DX009 (ip), vehicle: Klucel (hydroxypropylcellulose) (HPC)).

Turning to `Cc1nc(Cl)c(C#N)c(C)c1[N+](=O)[O-]`, the T/C runs as follows: under setting [6], 95 % of control; under setting [7], 90 % of control.

Take `COc1ccc(OC)c(NC(=O)Nc2cccc(F)c2)c1`: the T/C by setting is: (endpoint: mean survival time, dose: 100.0 mg/kg/injection, schedule: Q01DX009 (ip), vehicle: gum acacia) 90 % of control; (endpoint: mean survival time, dose: 200.0 mg/kg/injection, schedule: Q01DX009 (ip), vehicle: gum acacia) 92 % of control.
